Laboratory results as given in US8278322.
Read-outs that look alike come from different tables or passages of the source.

Molecule `C=C1CC(C)(C)COC(=O)N[C@@H](C2CCCCC2)C(=O)N2C[C@@H](C[C@H]2C(=O)OCC)Oc2nccc3cc(OC)c1cc23` has a ring closure, yield of all isomers (from C=CCC(C)(C)COC(=O)N[C@H](C(=O)N1C[C@H](Oc2nccc3cc(OC)c(Br)cc23)C[C@H]1C(=O)OCC)C1CCCCC1, cc_pd bond, PdCl2(dppf), ethanol, 66.4 mM, 90.0 °C, 19.0 h) of 35.5%.
For `CCOC(=O)[C@@H]1C[C@@H]2CN1C(=O)[C@H](C1CCCC1)NC(=O)OCC(C)(C)C/C=C/c1ccc3ccnc(c3c1)O2`, the ring closure, yield of all isomers (from C=CCC(C)(C)COC(=O)N[C@H](C(=O)N1C[C@H](Oc2nccc3ccc(C=C)cc23)C[C@H]1C(=O)OCC)C1CCCC1, rcm bond, Zhan 1B, DCE, 2.88 mM, 70.0 °C, 3.0 h) was 83%.
With `CCCC[C@@H]1NC(=O)OCCCC=Cc2ccc3ccnc(c3c2)O[C@@H]2C[C@@H](C(=O)OCC)N(C2)C1=O` the ring closure, yield of all isomers (from C=CCCCOC(=O)N[C@@H](CCCC)C(=O)N1C[C@H](Oc2nccc3ccc(C=C)cc23)C[C@H]1C(=O)OCC, rcm bond, Zhan Catalyst I (RC-301), dichloro(5-chloro-2-isopropoxybenzylidene)(1,3-dimesitylimidazolidin-2-ylidene)ruthenium, 1,2-dichloroethane, 7.4 mM, 80.0 °C, 2.0 h) was 63.5%.
Work on `CCOC(=O)[C@@H]1C[C@@H]2CN1C(=O)[C@H](C(C)(C)C)NC(=O)OCCCC#Cc1ccc3ccnc(c3c1)O2` yielded a ring closure, yield of all isomers (from CCOC(=O)[C@@H]1C[C@@H](Oc2nccc3ccc(C#CCCCOC(=O)N[C@H](C(=O)O)C(C)(C)C)cc23)CN1C(=O)OC(C)(C)C, amide bond, HATU, DCM, 3.7 mM, 20.0 h, 2 steps) of 14.5%.
